# Data: publication PMC4153893, “Synergetic cytotoxic activity toward breast cancer cells enhanced by the combination of Antp-TPR hybrid peptide targeting Hsp90 and Hsp70-targeted peptide” (BMC Cancer, 2014)
# Ends that are not written are not given here.
# Experiments:
# MDA-MB-361 cells = assay: Cell viability assay (WST-8); assay type: cell-based, human; conditions: 24 h, mean of three independent observations each performed in triplicate, read-out: IC50 of Antp-TPR
# Experimental: (§1) Cell viability was determined by WST-8 assay as described previously. Briefly, cells were seeded onto 96-well plates at 2000–3000 cells/well overnight. After incubating with the test peptides, the cell viability assay was carried out using Living Cell Count Reagent SF (Nacalai Tesque) according to the manufacturer’s protocol. Absorbance was measured at 450 nm using a 96-well microplate reader (GE Healthcare Bioscience, Piscataway, NJ).
# MDA-MB-231 cells = assay: Cell viability assay (WST-8); assay type: cell-based, human; conditions: 24 h
# Experimental: as §1
# BT474 cells = assay: Cell viability assay (WST-8); assay type: cell-based, human; conditions: 24 h, mean of three independent observations each performed in triplicate, read-out: IC50 of Antp-TPR
# Experimental: as §1
# [1] = test system: normal mammary epithelial cells (MCF-10A); assay: Cell viability assay (WST-8); assay type: cell-based, human; conditions: 24 h, R11-Hsp70 10 μM where present, compared with cancer cell lines
# Experimental: as §1
# BT20 cells = assay: Cell viability assay (WST-8); assay type: cell-based, human
# Experimental: as §1
# [2] = test system: MDA-MB-231, BT20, BT474, and MDA-MB-361 cell lines; assay: Cell viability assay (WST-8), summary over four breast cancer cell lines; assay type: cell-based, human; conditions: MDA-MB-231, BT20, BT474, MDA-MB-361; summary of Table 1; read-out: IC50 values of Antp-TPR alone, range over four cell lines
# Experimental: as §1
# [3] = test system: Hsp70 / Hsp70 promoter in BT20 cells; assay: Hsp70 expression (western blotting) and Hsp70 promoter activation (reporter assay, LV200 single-cell imaging); assay type: cell-based, human
# Experimental: Western blotting was carried out as described previously. Briefly, protein extracts were prepared from cells lysed with reporter lysis buffer (Promega, Madison, WI, USA), separated by SDS-PAGE and transferred to nitrocellulose filters using the iBlot system (Invitrogen, Carlsbad, CA, USA) according to the manufacturer’s protocol. Quenched membranes were probed with antibodies and analyzed using an enhanced reagent of Chemi-Lumi One Super (Nacalai Tesque) with a LAS-3000 LuminoImage analyzer (Fujifilm, Tokyo, Japan). Densitometric analysis was performed by Multi Gauge software V3.0 (Fujifilm) using the bands obtained from western blotting, in which actin as the loading control was used for normalizing of each bands.
# A reporter assay was carried out as described previously. […] The relative activity of firefly luciferase to Renilla luciferase activity was determined in triplicate (means ± SD) using the Dual-Glo Luciferase Assay System (Promega).
# Stably transfected BT20 cells with pHsp70Pro-Luc were prepared after transient transfection with Lipofectamine LTX according to the manufacturer’s protocol in a selective medium containing 200 μg/ml hygromycine B (Nacalai Tesque). Luminescence images at the single-cell level were obtained using the LV200 luminescence imaging system (Olympus) as described previously. […]
# cancer cells = conditions: in the presence of 2-phenylethynesulfonamide; cited from earlier work
# From the text: It was recently reported that VER155008 could bind to the ...
# [4] = test system: BT20, MDA-MB-231, or MCF-10A cells; assay: Cellular uptake by flow cytometry; assay type: cell-based, human; conditions: BT20, MDA-MB-231, MCF-10A, Antp-TPR-TAMRA 10 μM, R11-Hsp70 or R11-Hsp70 scramble 10 μM, 30 min
# Experimental: Flow cytometry assay was performed as described previously. […] The cell pellets were resuspended, and then flow cytometry analysis was performed by FACSCalibur (BD Bioscience, San Jose, CA, USA). Data were analyzed using CellQuest Software (BD Bioscience). Annexin V and PI staining was performed using Annexin V-Fluorescein Staining Kit (Wako Chemicals, Osaka, Japan) by multiparametric flow cytometry assay as described previously.
molecule,measurement,setting,value
RQIKIWFQNRRMKWKKKAYARIGNSYFK [Antp-TPR],IC50,MDA-MB-361 cells,33.8 ± 2.6 µM
same,IC50,"MDA-MB-231 cells; WST-8, mean of three independent observations each performed in triplicate, read-out: IC50 of Antp-TPR",31.2 ± 3 µM
same,IC50,BT474 cells,34.1 ± 2.7 µM
same,cytotoxic activity toward normal mammary epithelial cells,[1],less than that of these peptides against cancer cell lines
same,IC50,"BT20 cells; 24 h, WST-8, mean of three independent observations each performed in triplicate, read-out: IC50 of Antp-TPR",26.1 ± 3 µM
same,IC50,[2],26 to 34 µM
"C=CCNC1=C2C[C@@H](C)C[C@H](OC)[C@H](O)[C@@H](C)/C=C(\C)[C@H](OC(N)=O)[C@@H](OC)/C=C\C=C(/C)C(=O)NC(=CC1=O)C2=O [17-AAG, 17-allylamino-demethoxygeldanamycin]",activation of the Hsp70 promoter,"[3]; BT20 cells with pHsp70Pro-Luc, Antp-TPR 20 μM, R11-Hsp70 10 μM, 17-AAG 0.5 μM, luminometer 18 h and LV200 single-cell imaging",induced activation at the single-cell level
same,up-regulation of Hsp70 and the promoter activity of this protein,"[3]; BT20 cells, 0.5 μM 17-AAG, 6 h or 18 h western blotting, promoter assay 18 h",induced both
"N#Cc1ccc(COC[C@H]2O[C@@H](n3c(NCc4ccc(Cl)c(Cl)c4)nc4c(N)ncnc43)[C@H](O)[C@@H]2O)cc1 [VER155008, reference compound]",effect on the cytotoxic activity of 17-AAG,"BT20 cells; 5 μM VER155008, WST-8",did not have any synergetic effect on the cytotoxic activity of 17-AAG
same,effect on the cytotoxic activity of Antp-TPR,"BT20 cells; 5 μM VER155008, WST-8",cytotoxic activity of Antp-TPR toward cancer cells was increased
NS(=O)(=O)C#Cc1ccccc1 [2-phenylethynesulfonamide],effect on the cytotoxic activity of 17-AAG,cancer cells,the cytotoxic activity of 17-AAG was increased
RRRRRRRRRRRGGGTPTYRASCFYHYK [R11-Hsp70scramble],effect on the cytotoxic activity of Antp-TPR,MDA-MB-231 cells; R11-Hsp70scramble 10 μM,no effective increase in the cytotoxic activity of Antp-TPR
same,effect on the cytotoxic activity of Antp-TPR,"BT20 cells; R11-Hsp70scramble 10 μM, 24 h",no effective increase in the cytotoxic activity of Antp-TPR
RRRRRRRRRRRGGGYCAYYSPRHKTTF [R11-Hsp70],enhancement for cellular uptake of Antp-TPR,[4],higher than that of Antp-TPR by R11-Hsp70 scramble peptide
same,effect on the cytotoxic activity of 17-AAG,"BT20 cells; R11-Hsp70 10 μM, 24 h",did not affect the cytotoxic activity of 17-AAG
